Source: ChEMBL document CHEMBL3046876, “Effect of Buprofezin on Oviposition of Brown Planthopper, Nilaparvata lugens, at Sub-lethal Dose” (1996)

How the values were obtained:
Assay type in all cases: functional
Nilaparvata lugens [1] = test: Insecticidal activity against Nilaparvata lugens (brown planthopper) fifth-instar nymphs assessed as mortality at 0.0032 ppm measured after 7 days; settings: 168 h
Nilaparvata lugens [2] = test: Insecticidal activity against Nilaparvata lugens (brown planthopper) emerged female adult assessed as mortality at 0.08 ppm measured after 7 days relative to control; settings: 168 h
Nilaparvata lugens [3] = test: Effect on egg maturity in Nilaparvata lugens (brown planthopper) at 0.00064 ppm measured after 7 days relative to control
Nilaparvata lugens [4] = test: Effect on development of ovarioles in Nilaparvata lugens (brown planthopper) assessed as number of ovarioles at 0.00064 ppm measured after 7 days relative to control
Nilaparvata lugens [5] = test: Insecticidal activity against Nilaparvata lugens (brown planthopper) emerged female adult assessed as mortality at 0.0000256 ppm measured after 7 days relative to control; settings: 168 h
Nilaparvata lugens [6] = test: Insecticidal activity against Nilaparvata lugens (brown planthopper) assessed as mortality at 50 ppm measured after 7 days relative to control; settings: 168 h
Nilaparvata lugens [7] = test: Effect on oviposition in Nilaparvata lugens (brown planthopper) assessed as eggs laid at 0.0000256 ppm measured after 7 days relative to control
Nilaparvata lugens [8] = test: Insecticidal activity against Nilaparvata lugens (brown planthopper) assessed as mortality at 10 ppm measured after 7 days relative to control; settings: 168 h
Nilaparvata lugens [9] = test: Insecticidal activity against Nilaparvata lugens (brown planthopper) emerged female adult assessed as mortality at 0.016 ppm measured after 7 days relative to control; settings: 168 h
Nilaparvata lugens [10] = test: Insecticidal activity against Nilaparvata lugens (brown planthopper) assessed as mortality at 0.016 ppm measured after 7 days relative to control; settings: 168 h
Nilaparvata lugens [11] = test: Effect on oviposition in Nilaparvata lugens (brown planthopper) assessed as eggs laid at 10 ppm measured after 7 days relative to control
Nilaparvata lugens [12] = test: Effect on oviposition in Nilaparvata lugens (brown planthopper) assessed as eggs laid at 0.4 ppm measured after 7 days relative to control
Nilaparvata lugens [13] = test: Effect on oviposition in Nilaparvata lugens (brown planthopper) assessed as eggs laid at 0.016 ppm measured after 7 days relative to control
Nilaparvata lugens [14] = test: Insecticidal activity against Nilaparvata lugens (brown planthopper) fifth-instar nymphs assessed as mortality at 10 ppm measured after 7 days; settings: 168 h
Nilaparvata lugens [15] = test: Effect on oviposition in Nilaparvata lugens (brown planthopper) assessed as eggs laid at 0.08 ppm measured after 7 days relative to control
Nilaparvata lugens [16] = test: Insecticidal activity against Nilaparvata lugens (brown planthopper) assessed as mortality at 2 ppm measured after 7 days relative to control; settings: 168 h
Nilaparvata lugens [17] = test: Insecticidal activity against Nilaparvata lugens (brown planthopper) assessed as mortality at 0.08 ppm measured after 7 days relative to control; settings: 168 h
Nilaparvata lugens [18] = test: Effect on life span in Nilaparvata lugens (brown planthopper) adult at 0.00064 ppm measured after 7 days relative to control
Nilaparvata lugens [19] = test: Insecticidal activity against Nilaparvata lugens (brown planthopper) fifth-instar nymphs assessed as mortality at 0.08 ppm measured after 7 days; settings: 168 h
Nilaparvata lugens [20] = test: Insecticidal activity against Nilaparvata lugens (brown planthopper) emerged female adult assessed as mortality at 0.00064 ppm measured after 7 days relative to control; settings: 168 h
Nilaparvata lugens [21] = test: Insecticidal activity against Nilaparvata lugens (brown planthopper) fifth-instar nymphs assessed as mortality at 0.00064 ppm measured after 7 days; settings: 168 h
Nilaparvata lugens [22] = test: Effect on oviposition in Nilaparvata lugens (brown planthopper) assessed as eggs laid at 0.0032 ppm measured after 7 days relative to control
Nilaparvata lugens [23] = test: Effect on life span in Nilaparvata lugens (brown planthopper) adult at 0.016 ppm measured after 7 days relative to control
Nilaparvata lugens [24] = test: Effect on egg maturity in Nilaparvata lugens (brown planthopper) at 0.016 ppm measured after 7 days relative to control
Nilaparvata lugens [25] = test: Effect on development of ovarioles in Nilaparvata lugens (brown planthopper) assessed as number of ovarioles at 0.4 ppm measured after 7 days relative to control
Nilaparvata lugens [26] = test: Insecticidal activity against Nilaparvata lugens (brown planthopper) emerged female adult assessed as mortality at 0.0032 ppm measured after 7 days relative to control; settings: 168 h
Nilaparvata lugens [27] = test: Effect on hatchability in Nilaparvata lugens (brown planthopper) at 0.016 ppm measured after 7 days relative to control
Nilaparvata lugens [28] = test: Effect on egg maturity in Nilaparvata lugens (brown planthopper) at 0.4 ppm measured after 7 days relative to control
Nilaparvata lugens [29] = test: Insecticidal activity against Nilaparvata lugens (brown planthopper) assessed as mortality at 0.0032 ppm measured after 7 days relative to control; settings: 168 h
Nilaparvata lugens [30] = test: Insecticidal activity against Nilaparvata lugens (brown planthopper) fifth-instar nymphs assessed as mortality at 0.0000256 ppm measured after 7 days; settings: 168 h
Nilaparvata lugens [31] = test: Effect on oviposition in Nilaparvata lugens (brown planthopper) assessed as eggs laid at 0.00064 ppm measured after 7 days relative to control
Nilaparvata lugens [32] = test: Effect on oviposition in Nilaparvata lugens (brown planthopper) assessed as eggs laid at 2 ppm measured after 7 days relative to control
Nilaparvata lugens [33] = test: Insecticidal activity against Nilaparvata lugens (brown planthopper) assessed as mortality at 0.0000256 ppm measured after 7 days relative to control; settings: 168 h
Nilaparvata lugens [34] = test: Effect on life span in Nilaparvata lugens (brown planthopper) adult at 10 ppm measured after 7 days relative to control
Nilaparvata lugens [35] = test: Insecticidal activity against Nilaparvata lugens (brown planthopper) emerged female adult assessed as mortality at 10 ppm measured after 7 days relative to control; settings: 168 h
Nilaparvata lugens [36] = test: Insecticidal activity against Nilaparvata lugens (brown planthopper) assessed as mortality at 0.000128 ppm measured after 7 days relative to control; settings: 168 h
Nilaparvata lugens [37] = test: Insecticidal activity against Nilaparvata lugens (brown planthopper) fifth-instar nymphs assessed as mortality at 2 ppm measured after 7 days; settings: 168 h
Nilaparvata lugens [38] = test: Effect on hatchability in Nilaparvata lugens (brown planthopper) at 0.08 ppm measured after 7 days relative to control
Nilaparvata lugens [39] = test: Insecticidal activity against Nilaparvata lugens (brown planthopper) assessed as mortality at 0.00064 ppm measured after 7 days relative to control; settings: 168 h
Nilaparvata lugens [40] = test: Insecticidal activity against Nilaparvata lugens (brown planthopper) assessed as mortality at 0.4 ppm measured after 7 days relative to control; settings: 168 h
Nilaparvata lugens [41] = test: Insecticidal activity against Nilaparvata lugens (brown planthopper) fifth-instar nymphs assessed as mortality at 0.000128 ppm measured after 7 days; settings: 168 h
Nilaparvata lugens [42] = test: Effect on hatchability in Nilaparvata lugens (brown planthopper) at 2 ppm measured after 7 days relative to control
Nilaparvata lugens [43] = test: Insecticidal activity against Nilaparvata lugens (brown planthopper) fifth-instar nymphs assessed as mortality at 50 ppm measured after 7 days; settings: 168 h
Nilaparvata lugens [44] = test: Effect on development of ovarioles in Nilaparvata lugens (brown planthopper) assessed as number of ovarioles at 0.016 ppm measured after 7 days relative to control
Nilaparvata lugens [45] = test: Effect on hatchability in Nilaparvata lugens (brown planthopper) at 0.4 ppm measured after 7 days relative to control
Nilaparvata lugens [46] = test: Effect on life span in Nilaparvata lugens (brown planthopper) adult at 0.4 ppm measured after 7 days relative to control
Nilaparvata lugens [47] = test: Insecticidal activity against Nilaparvata lugens (brown planthopper) emerged female adult assessed as mortality at 0.000128 ppm measured after 7 days relative to control; settings: 168 h
Nilaparvata lugens [48] = test: Insecticidal activity against Nilaparvata lugens (brown planthopper) emerged female adult assessed as mortality at 0.4 ppm measured after 7 days relative to control; settings: 168 h
Nilaparvata lugens [49] = test: Insecticidal activity against Nilaparvata lugens (brown planthopper) fifth-instar nymphs assessed as mortality at 0.016 ppm measured after 7 days; settings: 168 h
Nilaparvata lugens [50] = test: Insecticidal activity against Nilaparvata lugens (brown planthopper) emerged female adult assessed as mortality at 2 ppm measured after 7 days relative to control; settings: 168 h
Nilaparvata lugens [51] = test: Effect on oviposition in Nilaparvata lugens (brown planthopper) assessed as eggs laid at 0.000128 ppm measured after 7 days relative to control
Nilaparvata lugens [52] = test: Insecticidal activity against Nilaparvata lugens (brown planthopper) fifth-instar nymphs assessed as mortality at 0.4 ppm measured after 7 days; settings: 168 h
Nilaparvata lugens [53] = test: Effect on hatchability in Nilaparvata lugens (brown planthopper) at 10 ppm measured after 7 days relative to control

CC(C)N1C(=O)N(c2ccccc2)CS/C1=N\C(C)(C)C [BUPROFEZIN]
mortality at 0.0032 ppm (Nilaparvata lugens [1]): 0%
mortality at 0.08 ppm (Nilaparvata lugens [2]): 9%
Activity (Nilaparvata lugens [3]): 98%
Activity (Nilaparvata lugens [4]): 103%
mortality at 2.56e-05 ppm (Nilaparvata lugens [5]): 0%
mortality at 50 ppm (Nilaparvata lugens [6]): 100%
Activity (Nilaparvata lugens [7]): 97%
mortality at 10 ppm (Nilaparvata lugens [8]): 95%
mortality at 0.016 ppm (Nilaparvata lugens [9]): 3%
mortality at 0.016 ppm (Nilaparvata lugens [10]): 3%
Activity (Nilaparvata lugens [11]): 0%
Activity (Nilaparvata lugens [12]): 79%
Activity (Nilaparvata lugens [13]): 92%
mortality at 10 ppm (Nilaparvata lugens [14]): 89%
Activity (Nilaparvata lugens [15]): 111%
mortality at 2 ppm (Nilaparvata lugens [16]): 69%
mortality at 0.08 ppm (Nilaparvata lugens [17]): 9%
Activity (Nilaparvata lugens [18]): 106%
mortality at 0.08 ppm (Nilaparvata lugens [19]): 0%
mortality at 0.00064 ppm (Nilaparvata lugens [20]): 0%
mortality at 0.00064 ppm (Nilaparvata lugens [21]): 0%
Activity (Nilaparvata lugens [22]): 115%
Activity (Nilaparvata lugens [23]): 101%
Activity (Nilaparvata lugens [24]): 106%
Activity (Nilaparvata lugens [25]): 107%
mortality at 0.0032 ppm (Nilaparvata lugens [26]): 0%
Activity (Nilaparvata lugens [27]): 96%
Activity (Nilaparvata lugens [28]): 100%
mortality at 0.0032 ppm (Nilaparvata lugens [29]): 0%
mortality at 2.56e-05 ppm (Nilaparvata lugens [30]): 0%
Activity (Nilaparvata lugens [31]): 88%
Activity (Nilaparvata lugens [32]): 36%
mortality at 2.56e-05 ppm (Nilaparvata lugens [33]): 0%
Activity (Nilaparvata lugens [34]): 28%
mortality at 10 ppm (Nilaparvata lugens [35]): 57%
mortality at 0.000128 ppm (Nilaparvata lugens [36]): 11%
mortality at 2 ppm (Nilaparvata lugens [37]): 0%
Activity (Nilaparvata lugens [38]): 98%
mortality at 0.00064 ppm (Nilaparvata lugens [39]): 0%
mortality at 0.4 ppm (Nilaparvata lugens [40]): 19%
mortality at 0.000128 ppm (Nilaparvata lugens [41]): 0%
Activity (Nilaparvata lugens [42]): 74%
mortality at 50 ppm (Nilaparvata lugens [43]): 100%
Activity (Nilaparvata lugens [44]): 106%
Activity (Nilaparvata lugens [45]): 97%
Activity (Nilaparvata lugens [46]): 78%
mortality at 0.000128 ppm (Nilaparvata lugens [47]): 11%
mortality at 0.4 ppm (Nilaparvata lugens [48]): 13%
mortality at 0.016 ppm (Nilaparvata lugens [49]): 0%
mortality at 2 ppm (Nilaparvata lugens [50]): 69%
Activity (Nilaparvata lugens [51]): 117%
mortality at 0.4 ppm (Nilaparvata lugens [52]): 7%

CC1(C)[C@H](C(=O)O[C@H](C#N)c2cccc(Oc3ccccc3)c2)[C@@H]1C=C(Br)Br [DELTAMETHRIN]
mortality at 0.0032 ppm (Nilaparvata lugens [1]): 0%
mortality at 0.08 ppm (Nilaparvata lugens [2]): 0%
Activity (Nilaparvata lugens [3]): 110%
Activity (Nilaparvata lugens [4]): 102%
mortality at 2.56e-05 ppm (Nilaparvata lugens [5]): 4%
mortality at 50 ppm (Nilaparvata lugens [6]): 100%
Activity (Nilaparvata lugens [7]): 107%
mortality at 10 ppm (Nilaparvata lugens [8]): 40%
Activity (Nilaparvata lugens [53]): 98%
mortality at 0.016 ppm (Nilaparvata lugens [9]): 9%
mortality at 0.016 ppm (Nilaparvata lugens [10]): 9%
Activity (Nilaparvata lugens [11]): 101%
Activity (Nilaparvata lugens [12]): 124%
Activity (Nilaparvata lugens [13]): 128%
mortality at 10 ppm (Nilaparvata lugens [14]): 40%
Activity (Nilaparvata lugens [15]): 112%
mortality at 2 ppm (Nilaparvata lugens [16]): 4%
mortality at 0.08 ppm (Nilaparvata lugens [17]): 2%
Activity (Nilaparvata lugens [18]): 120%
mortality at 0.08 ppm (Nilaparvata lugens [19]): 2%
mortality at 0.00064 ppm (Nilaparvata lugens [20]): 4%
mortality at 0.00064 ppm (Nilaparvata lugens [21]): 0%
Activity (Nilaparvata lugens [22]): 136%
Activity (Nilaparvata lugens [23]): 102%
Activity (Nilaparvata lugens [24]): 131%
Activity (Nilaparvata lugens [25]): 114%
mortality at 0.0032 ppm (Nilaparvata lugens [26]): 0%
Activity (Nilaparvata lugens [27]): 98%
Activity (Nilaparvata lugens [28]): 113%
mortality at 0.0032 ppm (Nilaparvata lugens [29]): 0%
mortality at 2.56e-05 ppm (Nilaparvata lugens [30]): 0%
Activity (Nilaparvata lugens [31]): 116%
Activity (Nilaparvata lugens [32]): 109%
mortality at 2.56e-05 ppm (Nilaparvata lugens [33]): 4%
Activity (Nilaparvata lugens [34]): 112%
mortality at 10 ppm (Nilaparvata lugens [35]): 0%
mortality at 0.000128 ppm (Nilaparvata lugens [36]): 0%
mortality at 2 ppm (Nilaparvata lugens [37]): 4%
Activity (Nilaparvata lugens [38]): 98%
mortality at 0.00064 ppm (Nilaparvata lugens [39]): 4%
mortality at 0.4 ppm (Nilaparvata lugens [40]): 9%
mortality at 0.000128 ppm (Nilaparvata lugens [41]): 0%
Activity (Nilaparvata lugens [42]): 92%
mortality at 50 ppm (Nilaparvata lugens [43]): 100%
Activity (Nilaparvata lugens [44]): 133%
Activity (Nilaparvata lugens [45]): 94%
Activity (Nilaparvata lugens [46]): 125%
mortality at 0.000128 ppm (Nilaparvata lugens [47]): 0%
mortality at 0.4 ppm (Nilaparvata lugens [48]): 0%
mortality at 0.016 ppm (Nilaparvata lugens [49]): 0%
mortality at 2 ppm (Nilaparvata lugens [50]): 0%
Activity (Nilaparvata lugens [51]): 105%
mortality at 0.4 ppm (Nilaparvata lugens [52]): 9%
